According to the Deep4Chem optical property database:

Assay: photoluminescence quantum yield (fraction); solvent given as SMILES
[1] = in N#Cc1ccc2c(c1)c1ccccc1n2-c1cccc(-n2c3ccccc3c3ccccc32)c1
[2] = in O=P(c1ccccc1)(c1ccccc1)c1ccccc1Oc1ccccc1P(=O)(c1ccccc1)c1ccccc1

c1ccc(Nc2nc(Nc3ccccc3)nc(Nc3ccc4cc5ccccc5cc4c3)n2)cc1
photoluminescence quantum yield (in C1COCCO1): 0.62 | photoluminescence quantum yield (in CC#N): 0.43 | photoluminescence quantum yield (in CCCCOCCCC): 0.41 | photoluminescence quantum yield (in CCOC(C)=O): 0.3

CC(C)(C)c1ccc2cc3c4cccc5cccc(c6cc(C(C)(C)C)cc(c2c1)c63)c54
photoluminescence quantum yield (in CC1CCCCC1): 0.74

CC1(C)c2ccccc2N(c2ccc(-c3ccc(C#N)nc3)cc2)c2ccccc21
photoluminescence quantum yield (in Cc1ccccc1): 0.345 | photoluminescence quantum yield [1]: 0.916

CCCSc1ccc2n1[B-](F)(F)[N+]1=C(SC#N)C=CC1=C2c1ccccc1
photoluminescence quantum yield (in CC#N): 0.16 | photoluminescence quantum yield (in CCCCCC): 0.18 | photoluminescence quantum yield (in CCOC(C)=O): 0.2 | photoluminescence quantum yield (in CO): 0.16 | photoluminescence quantum yield (in ClCCl): 0.27

COc1ccc(N2c3sc4ccccc4c3Sc3c2sc2ccccc32)cc1
photoluminescence quantum yield (in ClCCl): 0.23

CCCCN1C(=O)c2cccc3cccc(c23)C1=O
photoluminescence quantum yield (in Cc1ccccc1): 0.04

F[B-]1(F)OC(c2ccc(C(F)(F)F)cc2)=Cc2c3ccccc3cc[n+]21
photoluminescence quantum yield (in ClC(Cl)Cl): 0.026

Cc1ccccc1C
photoluminescence quantum yield (in C1CCCCC1): 0.26

CC1(C)c2ccccc2N(c2ccc(-c3ccc(C#N)c(C#N)n3)cc2)c2ccccc21
photoluminescence quantum yield (in Cc1ccccc1): 0.489 | photoluminescence quantum yield [1]: 0.904

C(/C=C/c1ccc(-n2c3ccccc3c3ccccc32)cc1)=C\c1ccncc1
photoluminescence quantum yield (in C1COCCO1): 0.55 | photoluminescence quantum yield (in CC#N): 0.32 | photoluminescence quantum yield (in CCCCCCC): 0.78 | photoluminescence quantum yield (in CO): 0.02

Oc1ccc2ccccc2c1
photoluminescence quantum yield (in C1CCCCC1): 0.51

COc1ccc(/C=C/c2nc(N3CCOCC3)c3c([n+]2[O-])CCCC3)cc1
photoluminescence quantum yield (in ClCCl): 0.12

Cc1cc(C)c(B(c2c(C)cc(C)cc2C)c2c(C)cc(-n3c4ccc(N(c5ccccc5)c5ccccc5)cc4c4cc(N(c5ccccc5)c5ccccc5)ccc43)cc2C)c(C)c1
photoluminescence quantum yield (in Cc1ccccc1): 0.84 | photoluminescence quantum yield [2]: 1

CC1(C)c2ccccc2N(c2ccccc2)c2ccc(-c3nc(-c4ccccc4)nc(-c4ccccc4)n3)cc21
photoluminescence quantum yield [2]: 0.55

CCOC(=O)c1c2c3c(ccc(C)c3c3cc4c(cc13)[Si](C)(C)O[Si]4(C)C)N(C)C2=O
photoluminescence quantum yield (in CC#N): 0.4

CCCCCCCCc1ccc(-n2c3c(c4c2c2c(n4-c4ccc(CCCCCCCC)cc4)-c4ccccc4NB2c2ccccc2)B(c2ccccc2)Nc2ccccc2-3)cc1
photoluminescence quantum yield (in Cc1ccccc1): 0.7

CN1/C(=C\C=C\C2=C3C=CC(c4ccccc4)=[N+]3[B-](F)(F)n3c2ccc3-c2ccccc2)Sc2ccccc21
photoluminescence quantum yield (in CC#N): 0.1

COc1ccc(-c2cn3cc(C)c[n+]3[n-]2)cc1
photoluminescence quantum yield (in ClCCl): 0.025

CCC1(CC)c2cc(/C=C/c3ccc(N(c4ccccc4)c4ccccc4)cc3)ccc2-c2ccc(/C=C/c3ccc(N(c4ccccc4)c4ccccc4)cc3)cc21
photoluminescence quantum yield (in Cc1ccccc1): 0.84

c1ccc(/C(=C(\c2ccccc2)c2cc(-c3ccccc3)ccc2-c2ccccc2)c2cc(-c3ccccc3)ccc2-c2ccccc2)cc1
photoluminescence quantum yield (in C1CCOC1): 0.3

Oc1ccccc1-c1nc2ccccc2s1
photoluminescence quantum yield (in CCO): 0.0155 | photoluminescence quantum yield (in ClCCl): 0.0368 | photoluminescence quantum yield (in O): 0.101

CC/[NH+]=c1\cc2oc3cc(NCCC(=O)NC(C(=O)OC)C(C)C)c4ccccc4c3nc-2cc1C (stereo not given)
photoluminescence quantum yield (in CCO): 0.4 | photoluminescence quantum yield (in O): 0.26

C/C(=C\c1ccc(Cl)cc1)c1nc2ccccc2s1
photoluminescence quantum yield (in C1CCCCC1): 0.03 | photoluminescence quantum yield (in CO): 0.005

C1=C(c2ccccc2)S[C@]23C1=C(c1ccccc1)[C@H](c1ccccc12)c1ccccc13
photoluminescence quantum yield (in ClCCl): 1

CC(=O)Nc1ccc2ccc3cccc4ccc1c2c34
photoluminescence quantum yield (in CC#N): 0.23 | photoluminescence quantum yield (in CCCCOCCCC): 0.27 | photoluminescence quantum yield (in CO): 0.13

COc1ccc(-c2c3cc4cc(C)sc4cc3c(-c3ccc(OC)cc3)c3cc4cc(C)sc4cc23)cc1
photoluminescence quantum yield (in ClCCl): 0.61

CC(C)(C)NC(=O)c1cccc2ccc3c4ccc(Cl)cc4c4cc(Cl)ccc4c3c12
photoluminescence quantum yield (in ClCCl): 0.02

Cc1ccc(-n2c3ccccc3c3cc(-c4ccc5[n+](c4)[B-](F)(F)n4c-5nc5c6ccccc6c6ccccc6c54)ccc32)cc1
photoluminescence quantum yield (in ClC(Cl)Cl): 0.957

Cn1c2nc(=O)[nH]c(=O)c-2nc2ccccc21
photoluminescence quantum yield (in CC1CCCO1): 0.3

CC1(C)C(/C=C/C=C/c2cc3ccc(O)cc3oc2=O)=[N+](CCCS(=O)(=O)[O-])c2ccccc21
photoluminescence quantum yield (in CS(C)=O): 0.013 | photoluminescence quantum yield (in O): 0.013

CCC(CC)COC1=CC2=C3c4cc(OCC(CC)CC)c(-c5cccs5)n4[B-](F)(F)[n+]4c3n(c3cc(C(C)(C)C)ccc34)[B-](F)(F)[N+]2=C1c1cccs1
photoluminescence quantum yield (in C1CCOC1): 0.07 | photoluminescence quantum yield (in ClCCl): 0.07

CN(C)c1ccc(-c2nc(-c3ccccc3)c3ccccn23)cc1
photoluminescence quantum yield (in ClCCl): 0.12

Cc1cc(C)c(C2=C3C=c4c(c5ccc(C(C)(C)C)cc5c5cc(C(C)(C)C)ccc45)=[N+]3[B-](F)(F)n3c2cc2c4ccc(C(C)(C)C)cc4c4cc(C(C)(C)C)ccc4c23)c(C)c1
photoluminescence quantum yield (in C1CCCCC1): 0.3 | photoluminescence quantum yield (in C1CCOC1): 0.25 | photoluminescence quantum yield (in CC#N): 0.24 | photoluminescence quantum yield (in Cc1ccccc1): 0.29 | photoluminescence quantum yield (in ClCCl): 0.25

CN1C(=CC=Cc2nc3nc4ccccc4nc3s2)C(C)(C)c2ccccc21
photoluminescence quantum yield (in CCO): 0.75

O=C1CCCC2=C1C(c1ccc([N+](=O)[O-])cc1)c1c(c3ccccc3oc1=O)N2 (stereo not given)
photoluminescence quantum yield (in CS(C)=O): 0.014

CCN(CC)c1ccc2cc(/C=C/c3ccccc3)c(=O)oc2c1
photoluminescence quantum yield (in CC#N): 0.85

COc1cccc2cc(C)c3c4ccccc4[nH]c3c12
photoluminescence quantum yield (in ClCCl): 0.284

CCC12C(=C3C(=C4c5ccccc5S(=O)(=O)C41CC)C(F)(F)C(F)(F)C3(F)F)c1ccccc1S2(=O)=O (stereo not given)
photoluminescence quantum yield (in C1COCCO1): 0.22

F[Si-](F)(c1ccccc1)(c1ccccc1)c1cccc2ccccc12
photoluminescence quantum yield (in C1CCOC1): 0.061

O=Cc1ccc(/C=C/c2nc(N3CCOCC3)c3c([n+]2[O-])CCCC3)cc1
photoluminescence quantum yield (in ClCCl): 0.025

Cc1ccc2ccc3cccc4ccc1c2c34
photoluminescence quantum yield (in CCCCCC): 0.34 | photoluminescence quantum yield (in CO): 0.28 | photoluminescence quantum yield (in ClCCl): 0.45

COc1ccc2cc(C3=[N+]4C(=Nc5c(-c6ccccc6)cc(-c6ccc7cc(OC)ccc7c6)n5[B-]4(F)F)C(c4ccccc4)=C3)ccc2c1
photoluminescence quantum yield (in ClC(Cl)Cl): 0.33 | photoluminescence quantum yield (in ClCCl): 0.33

O=S(=O)(c1ccccc1)c1ccc(-n2c3ccccc3c3c2c2ccccc2n3-c2ccccc2)cc1
photoluminescence quantum yield (in Cc1ccccc1): 0.195

CCCCCCN(CCCCCC)c1ccc(C#Cc2ccc(C#N)cc2)cc1
photoluminescence quantum yield (in CC#N): 0.005 | photoluminescence quantum yield (in CO): 0.015 | photoluminescence quantum yield (in ClCCl): 0.37

CC1=C2C=CC=[N+]2[B-](F)(F)n2cccc21
photoluminescence quantum yield (in CCCCCC): 0.96 | photoluminescence quantum yield (in CO): 1 | photoluminescence quantum yield (in ClCCl): 0.88

N#Cc1ccc(/C=C/C=C/C2=NC3C(=O)NC(N)=NC3N2[C@H]2C[C@H](O)[C@@H](CO)O2)cc1 (stereo not given in full)
photoluminescence quantum yield (in C1COCCO1): 0.75 | photoluminescence quantum yield (in CC#N): 0.47 | photoluminescence quantum yield (in CO): 0.32

Cc1cc2ccccc2c2c1c1ccccc1n2-c1ccc(C#N)cc1
photoluminescence quantum yield (in ClCCl): 0.04

CN(C)c1ccc2c(c1)-c1ccccc1C2=O
photoluminescence quantum yield (in C1CCCCC1): 0.14 | photoluminescence quantum yield (in CC#N): 0.083 | photoluminescence quantum yield (in CCO): 0.0081 | photoluminescence quantum yield (in c1ccccc1): 0.23

N#C/C(=C\c1ccc(C=C(c2ccccc2)c2ccccc2)cc1)c1ccc([N+](=O)[O-])cc1
photoluminescence quantum yield (in C1CCOC1): 0.046

C[Si](C)(c1ccc2cc3ccccc3cc2c1)[Si](C)(C)c1ccc2cc3ccccc3cc2c1
photoluminescence quantum yield (in C1CCCCC1): 0.18 | photoluminescence quantum yield (in CC#N): 0.04

c1cc2ccc3ccc4cc3c2cc1c1ccc2ccc3ccc(cc3c2c1)c1ccc2ccc3ccc4cc3c2c1
photoluminescence quantum yield (in Cc1ccccc1): 0.75

NCc1ccc2ccc3cccc4ccc1c2c34
photoluminescence quantum yield (in C1CCCCC1): 0.38 | photoluminescence quantum yield (in CC#N): 0.52 | photoluminescence quantum yield (in CO): 0.3 | photoluminescence quantum yield (in ClC(Cl)Cl): 0.07

Clc1ccc(/C=C/c2nc3ccccc3s2)cc1
photoluminescence quantum yield (in C1CCCCC1): 0.04 | photoluminescence quantum yield (in CO): 0.01

COc1ccc(/C=C/c2ccccc2)cc1
photoluminescence quantum yield (in C1CCCCC1): 0.022 | photoluminescence quantum yield (in CC#N): 0.007 | photoluminescence quantum yield (in CC(C)O): 0.011 | photoluminescence quantum yield (in CCCCOCCCC): 0.02 | photoluminescence quantum yield (in CCOC(C)=O): 0.016 | photoluminescence quantum yield (in CCOCC): 0.015

O=C1NC(c2ccccc2)=N/C1=C\c1ccccc1
photoluminescence quantum yield (in C1COCCO1): 0.001

CNCCCC1c2ccccc2C=Cc2ccccc21
photoluminescence quantum yield (in CC#N): 0.56 | photoluminescence quantum yield (in CO): 0.55 | photoluminescence quantum yield (in O): 0.62

Cc1cccc2[n+]1[B-](F)(F)n1c(c3cccc4cccc1c43)=N2
photoluminescence quantum yield (in C1CCOC1): 0.99 | photoluminescence quantum yield (in CC#N): 0.99 | photoluminescence quantum yield (in CCCCCC): 0.99 | photoluminescence quantum yield (in Cc1ccccc1): 0.99 | photoluminescence quantum yield (in ClCCl): 0.99

c1ccc(-c2nc(-c3ccccc3)nc(-c3cc(-n4c5ccccc5c5ncccc54)c(-n4c5ccccc5c5ccccc54)c(-n4c5ccccc5c5ncccc54)c3)n2)cc1
photoluminescence quantum yield [2]: 0.85

Cc1nc(-c2cc(F)ccc2O)n2c1CCCC2
photoluminescence quantum yield (in ClCCl): 0.72

COC(=O)c1cc(OC)ccc1OC
photoluminescence quantum yield (in CO): 0.64

C=CB1C=Cc2ccc3ccccc3c2N1
photoluminescence quantum yield (in C1CCCCC1): 0.42

COc1ccc2c(c1)c1ccccc1n2-c1nc2ccccc2nc1-n1c2ccccc2c2cc(OC)ccc21
photoluminescence quantum yield (in Cc1ccccc1): 0.13

CCOC(=O)c1sc(SC)c2c(=O)n(C)nnc12
photoluminescence quantum yield (in C1CCOC1): 0.016 | photoluminescence quantum yield (in CC#N): 0.029 | photoluminescence quantum yield (in CCO): 0.054 | photoluminescence quantum yield (in CN(C)C=O): 0.013 | photoluminescence quantum yield (in CO): 0.052 | photoluminescence quantum yield (in CS(C)=O): 0.0077

CC1(C)C2=[N+](CCCCCC(=O)NCCCNC(=O)CCCCCN3/C(=C/C=C/C=C/C=C/2)C(C)(C)c2cc(S(=O)(=O)[O-])ccc23)c2ccc(S(=O)(=O)[O-])cc21
photoluminescence quantum yield (in CO): 0.58 | photoluminescence quantum yield (in O): 0.36

CCCCC(CC)Cn1c2cc(C#N)ccc2c2ccc(C#N)cc21 (stereo not given)
photoluminescence quantum yield (in ClCCl): 0.3

COc1cccc2oc(-c3cc4c(OC)cccc4oc3=O)cc12
photoluminescence quantum yield (in CS(C)=O): 0.68
